Laboratory results published in patent US6610846B1, “Heteroaromatic glucokinase activators” (Hoffman-La Roche Inc., priority 1999, dated 2003).
Blank lines part the entries; values can stand above or below the compound they belong to.

What was measured:
C57BL/6J mice = assay: Glucokinase activator in vivo screen (blood glucose after oral dosing); settings: administered orally, 50 mg/kg, C57BL/6J mice fasted two hours; decrease in blood glucose compared to vehicle over six hours (Example B)
Protocol: Glucokinase Activator In Vivo Screen Protocol
C57BL/6J mice are orally dosed via gavage with Glucokinase (GK) activator at 50 mg/kg body weight following a two hour fasting period. Blood glucose determinations are made five times during the six hour post-dose study period. Mice (n=6) are weighed and fasted for a two hour period prior to oral treatment.

- melting point: 151 to 153 °C
Compound: O=C(Nc1ccccn1)C(CC1CCCC1)c1ccc(S(=O)(=O)C(F)(F)F)cc1 (stereo not drawn) [Example 43(A), 3-Cyclopentyl-N-pyridin-2-yl-2-(4-trifluoromethanesulfonyl-phenyl)-propionamide]
- glucokinase activator in vivo activity (C57BL/6J mice): excellent glucokinase activator in vivo activity

- melting point: 92 to 95 °C
Compound: CS(=O)(=O)c1ccc(C(CC2CCCC2)C(=O)Nc2ccccn2)cc1[N+](=O)[O-] (stereo not drawn) [Example 44, 3-Cyclopentyl-2-(4-methanesulfonyl-3-nitrophenyl)-N-pyridin-2-yl-propionamide]
- glucokinase activator in vivo activity (C57BL/6J mice): excellent glucokinase activator in vivo activity

- melting point: 106 to 107 °C
Compound: CS(=O)(=O)c1ccc(C(CC2CCCC2)C(=O)Nc2nccs2)cc1Br (stereo not drawn) [Example 72, 2-(3-Bromo-4-methanesulfonyl-phenyl)-3-cyclopentyl-N-thiazol-2-yl-propionamide]
- glucokinase activator in vivo activity (C57BL/6J mice): excellent glucokinase activator in vivo activity

- melting point: 99 to 101 °C
Compound: CS(=O)(=O)c1ccc(C(CC2CCCC2)C(=O)Nc2ccccn2)cc1Br (stereo not drawn) [Example 73, 2-(3-Bromo-4-methanesulfonyl-phenyl)-3-cyclopentyl-N-pyridin-2-yl-propionamide]
- glucokinase activator in vivo activity (C57BL/6J mice): excellent glucokinase activator in vivo activity

- melting point: 145 to 148 °C
Compound: CS(=O)(=O)c1ccc(C(CC2CCCC2)C(=O)Nc2nccs2)cc1C#N (stereo not drawn) [Example 75, 2-(3-Cyano-4-methanesulfonyl-phenyl)-3-cyclopentyl-N-thiazol-2-yl-propionamide]
- glucokinase activator in vivo activity (C57BL/6J mice): excellent glucokinase activator in vivo activity

- melting point: 87 to 90 °C
Compound: CS(=O)(=O)c1ccc(C(CC2CCCC2)C(=O)Nc2ccccn2)cc1C#N (stereo not drawn) [Example 76, 2-(3-Cyano-4-methanesulfonyl-phenyl)-3-cyclopentyl-N-pyridin-2-yl-propionamide]
- glucokinase activator in vivo activity (C57BL/6J mice): excellent glucokinase activator in vivo activity

- melting point: 95 to 100 °C
Compound: CS(=O)(=O)c1ccc(C(CC2CCCC2)C(=O)Nc2nccs2)cc1C(F)(F)F (stereo not drawn) [Example 89(A), 3-Cyclopentyl-2-(4-methanesulfonyl-3-trifluoromethyl-phenyl)-N-thiazol-2-yl-propionamide]
- glucokinase activator in vivo activity (C57BL/6J mice): excellent glucokinase activator in vivo activity

- melting point: 168 to 170 °C
Compound: O=C(Nc1nccs1)C(CC1CCCC1)c1ccc(OC(F)(F)F)cc1 (stereo not drawn) [Example 112, 3-Cyclopentyl-N-thiazol-2-yl-2-(4-trifluoromethoxy-phenyl)-propionamide]
- glucokinase activator in vivo activity (C57BL/6J mice): excellent glucokinase activator in vivo activity

- melting point: 157 to 160 °C
Compound: COCS(=O)(=O)c1ccc(C(CC2CCCC2)C(=O)Nc2nccs2)cc1 (stereo not drawn) [Example 125, 3-Cyclopentyl-2-(4-methoxymethanesulfonyl-phenyl)-N-thiazol-2-yl-propionamide]
- glucokinase activator in vivo activity (C57BL/6J mice): excellent glucokinase activator in vivo activity

- melting point: 83 to 87 °C
Compound: Cc1csc(NC(=O)[C@H](CC2CCCC2)c2ccc(S(C)(=O)=O)cc2)n1 [Example 128, 3-Cyclopentyl-2(R)-(4-methanesulfonyl-phenyl)-N-(4-methyl-thiazol-2-yl)-propionamide]
- glucokinase activator in vivo activity (C57BL/6J mice): excellent glucokinase activator in vivo activity

- melting point: 81 to 85 °C
Compound: Cc1cnc(NC(=O)[C@H](CC2CCCC2)c2ccc(S(C)(=O)=O)cc2)s1 [Example 129, 3-Cyclopentyl-2(R)-(4-methanesulfonyl-phenyl)-N-(5-methyl-thiazol-2-yl)-propionamide]
- glucokinase activator in vivo activity (C57BL/6J mice): excellent glucokinase activator in vivo activity

- melting point: 85 to 90 °C
Compound: CS(=O)(=O)c1ccc([C@@H](CC2CCCC2)C(=O)Nc2ccncn2)cc1C(F)(F)F [Example 157(A), 3-Cyclopentyl-2(R)-(4-methanesulfonyl-3-trifluoromethyl-phenyl)-N-pyrimidin-4-yl-propionamide]
- glucokinase activator in vivo activity (C57BL/6J mice): excellent glucokinase activator in vivo activity

More lines, now with the values behind:

Compound: O=C(Nc1nccs1)C(CC1CCCC1)c1ccc(S(=O)(=O)C(F)(F)F)cc1 (stereo not drawn) [Example 11(A), 3-Cyclopentyl-N-thiazol-2-yl-2-(4-trifluoromethanesulfonyl-phenyl)-propionamide]
- glucokinase activator in vivo activity (C57BL/6J mice): excellent glucokinase activator in vivo activity
- melting point: 189 to 191 °C

Compound: O=C(Nc1ccccn1)C(CC1CCCC1)c1ccc(Cl)c([N+](=O)[O-])c1 (stereo not drawn) [Example 65, 2-(4-Chloro-3-nitro-phenyl)-3-cyclopentyl-N-pyridin-2-yl-propionamide]
- glucokinase activator in vivo activity (C57BL/6J mice): excellent glucokinase activator in vivo activity
- melting point: 48 to 52 °C

Compound: O=C(Nc1ccccn1)C(CC1CCCC1)c1ccc(C(F)(F)F)c(F)c1 (stereo not drawn) [Example 71, 3-Cyclopentyl-2-(3-fluoro-4-trifluoromethyl-phenyl)-N-pyridin-2-yl-propionamide]
- glucokinase activator in vivo activity (C57BL/6J mice): excellent glucokinase activator in vivo activity
- melting point: 40 to 44 °C

Compound: CCS(=O)(=O)c1ccc(C(CC2CCCC2)C(=O)Nc2nccs2)cc1 (stereo not drawn) [Example 77, 3-Cyclopentyl-2-(4-ethanesulfonyl-phenyl)-N-thiazol-2-yl-propionamide]
- glucokinase activator in vivo activity (C57BL/6J mice): excellent glucokinase activator in vivo activity
- melting point: 178 to 179 °C

Compound: CS(=O)(=O)c1ccc(C(CC2CCCC2)C(=O)Nc2ncc(Cl)s2)cc1 (stereo not drawn) [Example 130, N-(5-Chloro-thiazol-2-yl)-3-cyclopentyl-2-(4-methanesulfonyl-phenyl)-propionamide]
- glucokinase activator in vivo activity (C57BL/6J mice): excellent glucokinase activator in vivo activity
- melting point: 76 to 79 °C

Compound: CS(=O)(=O)c1ccc([C@@H](CC2CCCC2)C(=O)Nc2ncc(Cl)s2)cc1 [Example 131, N-(5-Chloro-thiazol-2-yl)-3-cyclopentyl-2(R)-(4-methanesulfonyl-phenyl)-propionamide]
- glucokinase activator in vivo activity (C57BL/6J mice): excellent glucokinase activator in vivo activity
- melting point: 83 to 88 °C

Compound: Cc1nccc(NC(=O)C(CC2CCCC2)c2ccc(S(C)(=O)=O)c(C(F)(F)F)c2)n1 (stereo not drawn) [Example 155(B)(c), 3-Cyclopentyl-2-(4-methanesulfonyl-3-trifluoromethyl-phenyl)-N-(2-methyl-pyrimidin-4-yl)-propionamide]
- glucokinase activator in vivo activity (C57BL/6J mice): excellent glucokinase activator in vivo activity

Compound: CS(=O)(=O)c1ccc([C@@H](CC2CCCC2)C(=O)Nc2cnccn2)cc1C(F)(F)F [Example 157(B)(a), 3-Cyclopentyl-2(R)-(4-methanesulfonyl-3-trifluoromethyl-phenyl)-N-pyrazin-2-yl-propionamide]
- glucokinase activator in vivo activity (C57BL/6J mice): excellent glucokinase activator in vivo activity

Compound: Cc1nccc(NC(=O)[C@H](CC2CCCC2)c2ccc(S(C)(=O)=O)c(C(F)(F)F)c2)n1 [Example 157(B)(b), 3-Cyclopentyl-2(R)-(4-methanesulfonyl-3-trifluoromethyl-phenyl)-N-(2-methyl-pyrimidin-4-yl)-propionamide]
- glucokinase activator in vivo activity (C57BL/6J mice): excellent glucokinase activator in vivo activity
